Reference: ChEMBL document CHEMBL1201862, “PubChem BioAssay data set” (2004)
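A five-concentration, 48-hour dose response in 96-well plates underlies each endpoint, interpolated linearly between surrounding concentrations. GI50 is the concentration that inhibits growth by half.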 Calls of active or inactive are those of the source. Cut-off read from the data, not from the text of the source: active = GI50 up to about 1.1 µM and inactive = higher.

Tests used:
Assay in all cases: NCI tumour cell line growth inhibition, 48 h
HCT-116 = system: HCT-116
M19-MEL = system: M19-MEL
HOP-62 = system: HOP-62
KM12 = system: KM12
MOLT-4 = system: MOLT-4
NCI-H460 = system: NCI-H460
EKVX = system: EKVX
UACC-257 = system: UACC-257
UO-31 = system: UO-31
OVCAR-4 = system: OVCAR-4
A498 = system: A498
SK-OV-3 = system: SK-OV-3
RPMI-8226 = system: RPMI-8226
Malme-3M = system: Malme-3M
HL-60 = system: HL-60
HOP-92 = system: HOP-92

SMILES | GI50 (HCT-116) | GI50 (M19-MEL) | GI50 (HOP-62) | GI50 (KM12) | GI50 (MOLT-4) | GI50 (NCI-H460) | GI50 (EKVX) | GI50 (UACC-257) | GI50 (UO-31) | GI50 (OVCAR-4) | GI50 (A498) | GI50 (SK-OV-3) | GI50 (RPMI-8226) | GI50 (Malme-3M) | GI50 (HL-60) | GI50 (HOP-92)
CN(C)CCC(/C=C/c1ccccc1)=N\Nc1ccccc1 | 1.9 µM (inactive) | 1.57 µM (inactive) | 2.59 µM (inactive) | 0.847 µM (active) | 0.667 µM (active) | 1.41 µM (inactive) | 2.07 µM (inactive) | 2.42 µM (inactive) | 1.4 µM (inactive) | 4.32 µM (inactive) | 12.5 µM (inactive) | 3.56 µM (inactive) | 0.853 µM (active) | 3.07 µM (inactive) | 0.564 µM (active) | 
CC(=O)O[C@H]1[C@H](O[C@H]2CC[C@]34C[C@]35CC[C@]3(C)[C@@H]([C@@]6(C)CC[C@@H](C(C)(C)O)O6)[C@@H](O)C[C@@]3(C)[C@@H]5C[C@H](O[C@@H]3O[C@H](CO)[C@@H](O)[C@H](O)[C@H]3O)[C@H]4C2(C)C)OC[C@@H](O)[C@@H]1O | > 100 µM (inactive) | 78.5 µM (inactive) | > 100 µM (inactive) | > 100 µM (inactive) | > 100 µM (inactive) | 71 µM (inactive) | > 100 µM (inactive) | > 100 µM (inactive) | > 100 µM (inactive) | > 100 µM (inactive) | > 100 µM (inactive) | > 100 µM (inactive) | 52.6 µM (inactive) | > 100 µM (inactive) | 35.6 µM (inactive) | > 100 µM (inactive)
C[C@@H](CC(O)C1OC1(C)C)[C@@H]1CC[C@]2(C)C3=CCC4C(C)(C)C(O)CC[C@]4(C)C3CCC12C (some centres undefined) | 9.89 µM (inactive) | 18.1 µM (inactive) | 42.8 µM (inactive) | 22.9 µM (inactive) | 16 µM (inactive) | 17.3 µM (inactive) | 39.6 µM (inactive) | 16.3 µM (inactive) | 18.6 µM (inactive) | 20.8 µM (inactive) | 26.5 µM (inactive) | 19.8 µM (inactive) | 10.3 µM (inactive) | 13 µM (inactive) | 4.14 µM (inactive) | 17.9 µM (inactive)
COc1ccc(C23c4ccc(OC)cc4CC2(c2ccc([N+](=O)[O-])cc2)Cc2cc(OC)ccc23)cc1 (centres undefined) | > 37.2 µM (inactive) | > 35.2 µM (inactive) | > 14.1 µM (inactive) | > 35.8 µM (inactive) | > 36.2 µM (inactive) | > 89.1 µM (inactive) | > 15.2 µM (inactive) | > 51.3 µM (inactive) | > 24.3 µM (inactive) | > 25.1 µM (inactive) | > 29.7 µM (inactive) | > 28.2 µM (inactive) | > 27.4 µM (inactive) | > 38.2 µM (inactive) | > 55 µM (inactive) | > 21.9 µM (inactive)
CC(=O)Oc1ccccc1 [ACETIC ACID PHENYL ESTER] | > 100 µM (inactive) | > 100 µM (inactive) | > 100 µM (inactive) | > 100 µM (inactive) | > 100 µM (inactive) | > 100 µM (inactive) | > 100 µM (inactive) | > 100 µM (inactive) | > 100 µM (inactive) | > 100 µM (inactive) | > 100 µM (inactive) |  | > 100 µM (inactive) | > 100 µM (inactive) | > 100 µM (inactive) | 
COc1ccc([C@@]2(O)c3c(ccc(O)c3OC)[C@H]2OC)c(OC)c1 | 33.5 µM (inactive) | 48.5 µM (inactive) | > 100 µM (inactive) | 39.4 µM (inactive) | 34.7 µM (inactive) | > 100 µM (inactive) | > 100 µM (inactive) | > 100 µM (inactive) | 69.3 µM (inactive) | 67.9 µM (inactive) | > 100 µM (inactive) | 28.6 µM (inactive) | 30.1 µM (inactive) | > 100 µM (inactive) | 31.6 µM (inactive) | 53.6 µM (inactive)
NC(=O)N/N=C/C(=C/Nc1ccccc1)[N+](=O)[O-] | > 100 µM (inactive) | > 100 µM (inactive) | > 100 µM (inactive) |  | 93.8 µM (inactive) | 89.1 µM (inactive) | > 100 µM (inactive) | > 100 µM (inactive) | > 100 µM (inactive) | > 100 µM (inactive) |  | > 100 µM (inactive) | > 100 µM (inactive) |  | > 100 µM (inactive) | 79.3 µM (inactive)
O=C(NC1C2CC3CC(C2)CC1C3)c1ccncn1 (centres undefined) | > 100 µM (inactive) | > 100 µM (inactive) | > 100 µM (inactive) | > 100 µM (inactive) |  | > 100 µM (inactive) | > 100 µM (inactive) | > 100 µM (inactive) | > 100 µM (inactive) | > 100 µM (inactive) | > 100 µM (inactive) |  |  | > 100 µM (inactive) | > 100 µM (inactive) | > 100 µM (inactive)
CC/C(C)=C1\CCC(CN2CCOCC2)C1=O (centres undefined) | 13.9 µM (inactive) | 14.9 µM (inactive) | 23.1 µM (inactive) | 24.3 µM (inactive) | 22.5 µM (inactive) | 17.8 µM (inactive) | 18.7 µM (inactive) | 17.3 µM (inactive) | 21.6 µM (inactive) | 17.6 µM (inactive) | 21.2 µM (inactive) |  | 2.21 µM (inactive) | 17.7 µM (inactive) | 15.1 µM (inactive) | 14.6 µM (inactive)
